Test results taken from PMC12217109, “Development of novel benzamide class I selective lysine deacetylase inhibitors as potent anticancer agents” (Journal of Enzyme Inhibition and Medicinal Chemistry, 2025).
“Also recorded” adds a separate entry of the source.

Key:
[1] = test system: acetylated tubulin; assay: Flow cytometric analysis of tubulin acetylation in A2780 cells; format: cell-based, human; conditions: A2780, 24 h, 10 µM
Procedure: The method was adapted from Ronzoni et al.[67] as previously described. A2780 cells were exposed to test compounds (0–10 µM) for 24 h, fixed with ice-cold ethanol (70% v/v) and permeabilised in the presence of 0.1% Triton-X. Non-specific protein binding was blocked using normal goat serum prior to incubation with or without primary antibodies raised against either anti-hyperacetylated Histone H4 (Penta) antibody (Upstate Biotechnology, USA) or acetylated tubulin (Sigma-Aldrich, UK), followed by incubation with FITC-conjugated secondary antibody (Dako). Cells were incubated in propidium iodide (PI) staining buffer (PBS with 50 µg/ml PI and 10 µg/ml RNase A) and subsequently analysed by flow cytometry (BD FACSCalibur; Becton Dickinson, UK). At least 15 000 events per sample were acquired and expression determined based on the detection of FITC fluorescence through the FL1 channel (530/30 nm bandpass optical filter), with cell doublets discriminated by forward/side scatter and background fluorescence omitted via comparison to unlabelled controls. Expression analysis was performed using CellQuest™ software (Becton Dickinson, UK).

[2] = biological target: HDAC4 (Homo sapiens, UniProt P56524); assay: Inhibition of individual recombinant KDACs
[3] = biological target: HDAC10 (Homo sapiens, UniProt Q969S8); assay: Inhibition of individual recombinant KDACs
[4] = biological target: HDAC6 (Homo sapiens, UniProt Q9UBN7); assay: Inhibition of individual recombinant KDACs
[5] = test system: hyperacetylated Histone H4; assay: Western blot of histone H4 hyperacetylation in A2780 cells; format: cell-based, human; conditions: A2780, 10 µM, 2, 4, 16 hrs
Procedure: Cells were then washed with ice-cold phosphate buffered saline (PBS) and lysed and sonicated in RIPA buffer [150 mM NaCl, 50 mM TrisHCl pH 7.4, 5 mM EDTA, 1% NP40, 0.1% SDS, 1 mM phenylmethylsulphonyl fluoride (PMSF) and proteinase inhibitor cocktail (1x)]. Cellular debris was removed by centrifugation (12,000 × g for 20 min, 4 °C) and protein concentration of the supernatants determined by Bradford Assay. Proteins (30 μg protein per lane) were resolved by SDS-PAGE, then transferred to the PVDF membrane (Hybond-P; Amersham, UK). For band size determination, Amersham Full-Range Rainbow™ Molecular Weight Markers (#RPN800) were loaded adjacent to the proteins within the gel. Non-specific protein binding on the PVDF membrane was blocked using 5% non-fat milk powder and the membranes probed separately with either anti-hyperacetylated Histone H4 (Penta) antibody (Upstate Biotechnology, USA), acetylated tubulin or β-actin antibodies (Sigma-Aldrich, UK). This was followed by incubation with horseradish peroxidase (HRP)-conjugated secondary antibodies (Dako, USA), with immunoreactive bands detected by enhanced chemiluminescence (ECL Plus detection kit; Amersham, UK).

[6] = test system: leukemic cell lines; assay: NCI-60 cytotoxicity screen, leukaemic cell lines; format: cell-based; conditions: Homo sapiens; NCI-60, range over cell lines; read-out: cytotoxicity IC50 against leukemic cell lines
Excerpt: Compounds 3–7 were submitted to the US National Cancer Institute (NIH, Bethesda, Maryland) for screening against the NCI-60 panel of human cancer cell lines, as per standard protocol.

[7] = Maximum tolerated dose evaluation in nude mice; format: in vivo
Excerpt: (§1) Female CD-1 (Crl:CD1-Foxn1^nu) immunodeficient nude mice aged 6–12 weeks were used (Charles River, Margate UK). Mice were kept in stainless steel cages housed in isolation cabinets in an air-conditioned room with regular alternating cycles of light and darkness, receiving Teklad 2018 diet (Envigo, Blackthorn, UK) and water ad libitum. Before experimentation, all mice were allowed to acclimatise for one week to their environment. Environmental enrichment was provided in the form of Perspex “mouse houses”, chewing blocks and exercise wheels.
For evaluation of the maximum tolerated dose (MTD), two mice were treated at each of the three dose levels evaluated ([…]). […] Mice were observed daily for signs of deleterious effects and bodyweight measured frequently. […] If no deleterious effects were seen after at least 14 days of study, then the animals were euthanised by isoflurane anaesthesia followed by cervical dislocation, and the dose considered non-toxic.

[8] = test system: A2780 human ovarian tumour xenograft; assay: A2780 human ovarian tumour xenograft efficacy study; format: in vivo, mice; conditions: 100 mg/kg i.p. days 0–4 and 7–11
Excerpt: as §1
To assess in vivo compound efficacy, mice were implanted subcutaneously in the abdominal flanks with 2–3 mm^3 -fragments of A2780 human ovarian tumour xenograft tumours, whilst under brief general inhalation anaesthesia (2% isoflurane). Treatments were initiated when tumours reached approximately 32 mm^3 and mice randomly assigned to cohorts (Twelve mice; n = 6 per group). […] Tumour volume, via calliper measurements, and body weight were assessed daily from initiation of treatment. The cut-off points for in-study termination being a > 15% body weight loss over a 72-h period and the tumour not exceeding 15 mm in the longest diameter. All mice were euthanised by isoflurane anaesthesia followed by cervical dislocation […]

[9] = biological target: HDAC2 (Homo sapiens, UniProt Q92769); assay: Inhibition of individual recombinant KDACs
[10] = biological target: HDAC5 (Homo sapiens, UniProt Q9UQL6); assay: Inhibition of individual recombinant KDACs
HDAC5, sequence (Q9UQL6 whole entry): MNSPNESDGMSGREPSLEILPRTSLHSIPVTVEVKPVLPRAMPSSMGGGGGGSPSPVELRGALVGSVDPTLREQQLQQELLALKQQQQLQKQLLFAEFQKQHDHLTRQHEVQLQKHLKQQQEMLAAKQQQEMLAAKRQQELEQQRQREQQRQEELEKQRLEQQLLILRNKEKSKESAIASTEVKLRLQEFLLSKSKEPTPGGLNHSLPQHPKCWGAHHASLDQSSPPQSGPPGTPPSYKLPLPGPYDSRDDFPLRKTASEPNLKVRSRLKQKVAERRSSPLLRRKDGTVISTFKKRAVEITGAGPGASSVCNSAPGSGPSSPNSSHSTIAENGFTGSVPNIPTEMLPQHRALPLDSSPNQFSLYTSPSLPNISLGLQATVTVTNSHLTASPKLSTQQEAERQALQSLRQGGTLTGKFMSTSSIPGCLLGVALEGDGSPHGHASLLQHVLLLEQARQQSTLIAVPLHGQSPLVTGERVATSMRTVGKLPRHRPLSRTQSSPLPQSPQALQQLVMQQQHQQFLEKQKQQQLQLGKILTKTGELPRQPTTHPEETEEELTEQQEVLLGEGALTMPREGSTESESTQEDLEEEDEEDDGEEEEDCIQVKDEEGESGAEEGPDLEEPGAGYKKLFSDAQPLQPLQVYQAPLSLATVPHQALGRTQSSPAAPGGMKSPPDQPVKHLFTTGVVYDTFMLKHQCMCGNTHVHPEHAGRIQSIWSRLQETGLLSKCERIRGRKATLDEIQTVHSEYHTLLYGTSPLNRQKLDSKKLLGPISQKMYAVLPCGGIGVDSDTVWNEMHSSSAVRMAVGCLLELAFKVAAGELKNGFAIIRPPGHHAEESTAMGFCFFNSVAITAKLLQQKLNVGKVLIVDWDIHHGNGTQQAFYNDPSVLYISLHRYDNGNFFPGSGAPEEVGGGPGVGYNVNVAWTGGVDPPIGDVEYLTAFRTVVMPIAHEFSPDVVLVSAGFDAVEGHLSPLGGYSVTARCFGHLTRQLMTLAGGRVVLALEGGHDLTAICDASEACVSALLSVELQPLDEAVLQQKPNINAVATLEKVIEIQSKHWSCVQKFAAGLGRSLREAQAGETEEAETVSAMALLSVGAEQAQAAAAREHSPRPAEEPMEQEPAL

HDAC4, sequence (P56524 whole entry): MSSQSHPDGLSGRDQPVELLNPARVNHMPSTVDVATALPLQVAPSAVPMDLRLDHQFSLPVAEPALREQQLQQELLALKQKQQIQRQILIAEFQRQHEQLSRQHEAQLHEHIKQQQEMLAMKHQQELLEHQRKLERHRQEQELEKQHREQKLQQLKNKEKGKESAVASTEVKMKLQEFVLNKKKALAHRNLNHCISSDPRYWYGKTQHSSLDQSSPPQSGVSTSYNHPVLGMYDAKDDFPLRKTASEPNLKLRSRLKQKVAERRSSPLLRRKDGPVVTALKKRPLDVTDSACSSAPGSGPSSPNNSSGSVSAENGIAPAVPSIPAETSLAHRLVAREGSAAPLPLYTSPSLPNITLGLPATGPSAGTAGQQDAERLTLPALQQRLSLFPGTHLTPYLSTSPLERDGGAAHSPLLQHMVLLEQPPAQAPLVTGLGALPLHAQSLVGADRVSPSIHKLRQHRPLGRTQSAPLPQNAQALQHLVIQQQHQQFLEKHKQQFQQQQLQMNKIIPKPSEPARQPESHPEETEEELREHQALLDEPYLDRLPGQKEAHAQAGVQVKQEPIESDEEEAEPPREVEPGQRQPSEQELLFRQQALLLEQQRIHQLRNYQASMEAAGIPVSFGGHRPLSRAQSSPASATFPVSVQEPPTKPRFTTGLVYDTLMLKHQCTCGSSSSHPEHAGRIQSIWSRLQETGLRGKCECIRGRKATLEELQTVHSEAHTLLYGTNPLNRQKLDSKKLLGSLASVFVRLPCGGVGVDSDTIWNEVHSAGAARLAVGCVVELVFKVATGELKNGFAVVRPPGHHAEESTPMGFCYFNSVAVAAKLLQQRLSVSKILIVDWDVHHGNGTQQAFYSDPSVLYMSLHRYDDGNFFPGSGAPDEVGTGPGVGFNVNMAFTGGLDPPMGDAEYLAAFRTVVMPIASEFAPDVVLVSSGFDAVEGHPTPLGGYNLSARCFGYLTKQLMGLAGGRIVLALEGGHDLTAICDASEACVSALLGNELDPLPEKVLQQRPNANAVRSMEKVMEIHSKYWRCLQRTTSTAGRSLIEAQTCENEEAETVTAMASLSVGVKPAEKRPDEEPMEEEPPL
HDAC2, sequence (Q92769 whole entry): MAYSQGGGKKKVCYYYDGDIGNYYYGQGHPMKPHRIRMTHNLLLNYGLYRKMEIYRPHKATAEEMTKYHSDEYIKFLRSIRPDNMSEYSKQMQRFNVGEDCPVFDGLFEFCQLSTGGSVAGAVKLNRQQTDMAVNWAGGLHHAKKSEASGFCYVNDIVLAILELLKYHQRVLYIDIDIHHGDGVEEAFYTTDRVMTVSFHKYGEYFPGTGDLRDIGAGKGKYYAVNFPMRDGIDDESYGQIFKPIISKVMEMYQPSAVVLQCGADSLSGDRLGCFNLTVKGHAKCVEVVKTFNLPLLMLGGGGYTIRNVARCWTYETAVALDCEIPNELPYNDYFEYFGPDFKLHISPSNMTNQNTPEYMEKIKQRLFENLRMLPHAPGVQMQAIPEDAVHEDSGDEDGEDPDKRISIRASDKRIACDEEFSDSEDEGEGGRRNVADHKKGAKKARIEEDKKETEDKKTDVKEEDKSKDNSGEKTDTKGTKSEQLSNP
HDAC6, sequence (Q9UBN7 whole entry): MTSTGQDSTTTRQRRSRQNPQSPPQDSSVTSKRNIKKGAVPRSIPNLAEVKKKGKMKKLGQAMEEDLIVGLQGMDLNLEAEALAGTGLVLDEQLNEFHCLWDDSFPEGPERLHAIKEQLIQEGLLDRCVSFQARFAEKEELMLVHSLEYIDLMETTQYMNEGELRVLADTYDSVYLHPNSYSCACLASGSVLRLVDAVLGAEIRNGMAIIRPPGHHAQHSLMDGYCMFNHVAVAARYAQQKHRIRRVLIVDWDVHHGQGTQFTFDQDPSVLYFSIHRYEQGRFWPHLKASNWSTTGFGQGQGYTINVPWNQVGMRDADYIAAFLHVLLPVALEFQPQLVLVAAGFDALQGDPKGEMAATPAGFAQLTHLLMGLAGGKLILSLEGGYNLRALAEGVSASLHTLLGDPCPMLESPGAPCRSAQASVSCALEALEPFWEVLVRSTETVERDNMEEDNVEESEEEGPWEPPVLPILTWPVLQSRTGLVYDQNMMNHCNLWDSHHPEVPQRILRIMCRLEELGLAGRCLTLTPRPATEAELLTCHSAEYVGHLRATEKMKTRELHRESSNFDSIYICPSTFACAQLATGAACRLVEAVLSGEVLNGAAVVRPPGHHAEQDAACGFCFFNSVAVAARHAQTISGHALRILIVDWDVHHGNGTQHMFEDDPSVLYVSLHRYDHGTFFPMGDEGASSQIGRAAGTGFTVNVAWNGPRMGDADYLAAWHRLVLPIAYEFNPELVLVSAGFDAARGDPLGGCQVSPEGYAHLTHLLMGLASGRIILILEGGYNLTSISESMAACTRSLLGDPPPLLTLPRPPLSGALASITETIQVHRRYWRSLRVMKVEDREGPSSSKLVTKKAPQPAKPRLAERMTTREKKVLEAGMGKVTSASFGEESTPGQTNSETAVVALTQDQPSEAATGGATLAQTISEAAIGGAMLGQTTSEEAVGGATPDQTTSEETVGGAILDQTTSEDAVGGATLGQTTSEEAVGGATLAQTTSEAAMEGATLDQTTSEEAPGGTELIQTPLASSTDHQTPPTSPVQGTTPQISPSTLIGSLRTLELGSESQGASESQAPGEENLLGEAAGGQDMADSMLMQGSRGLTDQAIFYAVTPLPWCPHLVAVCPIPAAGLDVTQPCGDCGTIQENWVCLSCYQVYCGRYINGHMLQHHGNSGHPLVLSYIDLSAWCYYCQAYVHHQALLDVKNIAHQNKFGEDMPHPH
HDAC10, sequence (Q969S8 whole entry): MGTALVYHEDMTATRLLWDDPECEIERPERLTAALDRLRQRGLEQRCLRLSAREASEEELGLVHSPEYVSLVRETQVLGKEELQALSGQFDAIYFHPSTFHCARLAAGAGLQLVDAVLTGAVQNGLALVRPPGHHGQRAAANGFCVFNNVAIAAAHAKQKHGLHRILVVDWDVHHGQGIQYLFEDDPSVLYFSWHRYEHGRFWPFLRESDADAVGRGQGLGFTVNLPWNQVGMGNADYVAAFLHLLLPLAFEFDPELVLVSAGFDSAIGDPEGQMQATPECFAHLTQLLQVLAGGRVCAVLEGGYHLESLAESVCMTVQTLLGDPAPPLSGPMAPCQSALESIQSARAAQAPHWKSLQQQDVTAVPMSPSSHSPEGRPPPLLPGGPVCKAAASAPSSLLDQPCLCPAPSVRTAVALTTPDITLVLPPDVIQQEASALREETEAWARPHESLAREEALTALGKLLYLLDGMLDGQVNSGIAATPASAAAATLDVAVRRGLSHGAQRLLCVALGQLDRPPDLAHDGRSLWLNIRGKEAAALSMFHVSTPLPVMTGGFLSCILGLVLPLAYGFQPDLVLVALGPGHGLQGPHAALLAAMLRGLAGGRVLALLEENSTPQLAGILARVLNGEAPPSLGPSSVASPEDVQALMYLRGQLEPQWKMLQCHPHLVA

SMILES | tubulin acetylation (flow cytometry) [1] | IC50 [2] [µM] | IC50 [3] [µM] | IC50 [4] [µM] | histone H4 hyperacetylation (western blotting) [5] | IC50 [6] [µM] | systemic toxicity ([7]; 100 mg/kg i.p., 5 consecutive days) | MTD ([7]; female, CD-1 nude (Crl:CD1-Foxn1^nu), mouse, in vivo, ip, single dose on 5 consecutive days) [mg/kg] | weight loss / toxicity during treatment [8] | IC50 [9] [µM] | IC50 [10] [µM]
Nc1ccccc1NC(=O)c1ccc(CNC(=O)OCc2cccnc2)cc1 [Compound 1, Entinostat, reference compound] | No change in Tubulin acetylation status; also recorded: neither 1 nor 7 induced a measurable change in tubulin acetylation | – | – | – | – | – | – | – | – | – | –
C=C(CN1CCN(c2cccc(C(F)(F)F)n2)CC1)c1ccc(C(=O)Nc2ccccc2N)cc1 [Compound 7, N-(2-aminophenyl)-4–(3-(4–(6-(trifluoromethyl)pyridin-2-yl)piperazin-1-yl)prop-1-en-2-yl)benzamide] | No change in Tubulin acetylation status; also recorded: neither 1 nor 7 induced a measurable change in tubulin acetylation | > 10 | > 10 | > 10 | Time dependent increase in Histone H4 acetylation; also recorded: time-dependent increase in histone H4 hyperacetylation | 0.28 to 0.86 | No systemic toxicity | 100 | No significant weight loss or overt toxicity; also recorded: did not induce significant weight loss or detrimental toxicity | 3.97 | > 10
